Patent US20020198208A1, “MEDICINAL PREPARATION AND PROCESS FOR MANUFACTURING THEREOF” (priority 2000, published 2002)
Like-named read-outs stand apart in the source and are kept apart here.

Assays:
[1] = system: macrophages; conditions: cited from earlier work
[2] = Clinical course of Patient I. (prostatic adenoma); assay type: in vivo, human
Procedure: Patient one.
Was hospitalized with complaints of difficult urination and urges to urinate.
Diagnosis: stage 1I prostatic adenoma.
Two courses of therapy with […] sodium salt dihydrate were performed by injections for 20 and 15 injections, respectively, with a 30-day interval between the injections. Doses of the preparation were from 100 to 500 mg in 1-5 ml of distilled water correspondingly.

[3] = cited from earlier work
[4] = prior-art preparations, powder; cited from earlier work
[5] = Patient S., after therapy (300 mg injection 5 days, then 100 mg perorally 2 times a day)
[6] = system: macrophages; conditions: patients with impaired cellular immunity
[7] = Patient G.
Procedure: Patient two.
Was hospitalized with diagnosis of erysipelas of the left forearm, edema, and exacerbation of psoriasis (temperature at hospitalization was 39.9° C.).
Tameril was injected daily in a single dose of 200 mg in 2 ml water.

[8] = Patient S., after therapy (300 mg injection 5 days, then 100 mg perorally 2 times a day); remark: listed apart in the source
[9] = system: macrophages; conditions: inflammatory diseases
[10] = Patient S.
[11] = doses 20-1500 mg
[12] = erysipelas and psoriasis, after therapy (200 mg injection daily, then 100 mg for 5 days)

## Nn1[nH]c(=O)c2ccccc2c1=O.O.O.[Na] [2-amino, 2-amino-1,2,3,4-tetrahydrophthalazine-1,4-dione sodium salt dihydrate]
[1]; inflammatory processes
  effect on macrophages: inactivates macrophages for several hours
[1]; patients with impaired cellular immunity, e.g. malignant neoplasms
  effect on macrophages: activates macrophages, interleukins and other acute-phase proteins
[2]; after the first course of 20 injections
  size of adenoma: decreased
[2]; after the second course of 15 injections
  size of adenoma: remained without further positive dynamic
[3]; in vivo
  side effects and allergic reactions: does not cause side effects and allergic reactions
[3]; patients with chronic and other diseases
  effect of longterm treatment: causes tolerance and decreases the efficiency of therapy
[4]
  solubility in water: easily soluble in water

## Nc1cccc2c(=O)[nH][nH]c(=O)c12.[Na] [Tamerit, 5-amino-2,3-dihydrophthalazine-1,4-dione sodium salt]
[5]
  ESR: 13.0 mm/h
  Eosinophils: 3.0%
  Erythrocytes: 5e+12 L⁻¹
  Hemoglobin: 147 g/L
  Leukocytes: 5.5e+09 L⁻¹
  Lymphocytes: 23.0%
  Monocytes: 6.0%
  Neutrophils: Segmented: 74.0%
  Neutrophils: Stab: 6.0%
[6]
  effect on T-lymphocytes: initiates specific reactions of T-lymphocytes
[6]; e.g. malignant neoplasms, evident by release of TNF, interleukins, other acute-phase proteins
  effect on macrophages: causes activation of macrophages
[7]; 200 mg injected daily
  time to disappearance of edema and hyperemia of the left forelimb: 4 days
[7]; after 200 mg daily then 100 mg injections for 5 days
  state of the patient: satisfactory state
[7]; [12]
  B-lymphocytes: 25.0%
  ESR: 16.0 mm/h
  Eosinophils: 4.0%
  Erythrocytes: 6.9e+12 L⁻¹
  Hemoglobin: 148 g/L
  Immunoglobulin A: 2.47 g/L
  Immunoglobulin G: 13.7 g/L
  Immunoglobulin M: 2.31 g/L
  Latex phagocytosis: 83.4%
  Leukocytes: 6.2e+09 L⁻¹
  Lymphocytes: 26.3%
  Monocytes: 2.0%
  Neutrophils: Segmented: 65.5%
  Neutrophils: Stab: 5.7%
  T-helpers: 31.2%
  T-lymphocytes: 60.3%
  T-suppressors: 20.1%
  TNF: 24.4
[2]; 10 daily injections of 200 mg after the 2-amino courses
  state of the patient (urination): urination was normalized
[8]
  B-lymphocytes: 24.5%
  Immunoglobulin A: 2.20 g/L
  Immunoglobulin G: 12.4 g/L
  Immunoglobulin M: 2.21 g/L
  Latex phagocytosis: 76.2%
  T-helpers: 29.5%
  T-lymphocytes: 67.0%
  T-suppressors: 23.5%
  TNF: 22.5
[9]
  contents of TNF and acute-phase proteins: decreasing the contents of TNF and acute-phase proteins
  function of neutrophilic granulocytes: enhances super-oxidizing function and phagocytic activity of neutrophilic granulocytes
[10]; 10 days after beginning of the therapy
  state of the patient: satisfactory state
[10]; three days after beginning of the therapy
  state of the patient (cough, temperature): cough disappeared, and temperature returned to normal
[11]
  side effects and allergic reactions: does not cause side effects and allergic reactions

## Nc1cccc2c(=O)[nH][nH]c(=O)c12 [luminol, 5-amino-2,3-dihydrophthalazine-1,4-dione]
[3]; in vivo
  medical effectiveness: medically ineffective
